Measurements taken from article PMC4086859 (Journal of medicinal chemistry, 2014).
Where a name gives a salt, the structure may show the parent alone.

How the values were obtained:
NCI/ADR-RES = test: Cytotoxic activity, NCI/ADR-RES cells; type: cell-based; details: Homo sapiens, 96 h, read-out: EC50 NCI/ADR-RES
OVCAR-8 = test: Cytotoxic activity, OVCAR-8 cells; type: cell-based; details: Homo sapiens, OVCAR-8, 96 h, read-out: EC50 OVCAR-8
OVCAR-8 cells = test: Cell cycle analysis by FACS; type: cell-based, human; details: OVCAR-8, 1.0 μM, 24 h, P < 0.05
[1] = target: tubulin (colchicine site) (Bos taurus, UniProt P81947+Q6B856); test: Inhibition of [3H]colchicine binding to tubulin; set-up: species or system bovine; details: read-out: colchicine binding inhibition (%)
Chain of tubulin (colchicine site) (P81947 whole entry): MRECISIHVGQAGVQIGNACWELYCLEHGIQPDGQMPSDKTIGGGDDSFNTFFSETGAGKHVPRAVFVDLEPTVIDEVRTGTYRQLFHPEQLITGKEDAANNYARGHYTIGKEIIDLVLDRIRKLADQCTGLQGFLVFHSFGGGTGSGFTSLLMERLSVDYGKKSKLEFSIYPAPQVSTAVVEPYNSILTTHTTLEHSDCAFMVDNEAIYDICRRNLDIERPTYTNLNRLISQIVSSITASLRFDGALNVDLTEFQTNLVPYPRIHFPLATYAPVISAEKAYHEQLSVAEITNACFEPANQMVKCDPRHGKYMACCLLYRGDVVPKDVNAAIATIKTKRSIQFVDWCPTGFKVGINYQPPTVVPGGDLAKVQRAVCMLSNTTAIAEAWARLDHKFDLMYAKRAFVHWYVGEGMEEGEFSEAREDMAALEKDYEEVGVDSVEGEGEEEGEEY
Chain of tubulin (colchicine site) (Q6B856 whole entry): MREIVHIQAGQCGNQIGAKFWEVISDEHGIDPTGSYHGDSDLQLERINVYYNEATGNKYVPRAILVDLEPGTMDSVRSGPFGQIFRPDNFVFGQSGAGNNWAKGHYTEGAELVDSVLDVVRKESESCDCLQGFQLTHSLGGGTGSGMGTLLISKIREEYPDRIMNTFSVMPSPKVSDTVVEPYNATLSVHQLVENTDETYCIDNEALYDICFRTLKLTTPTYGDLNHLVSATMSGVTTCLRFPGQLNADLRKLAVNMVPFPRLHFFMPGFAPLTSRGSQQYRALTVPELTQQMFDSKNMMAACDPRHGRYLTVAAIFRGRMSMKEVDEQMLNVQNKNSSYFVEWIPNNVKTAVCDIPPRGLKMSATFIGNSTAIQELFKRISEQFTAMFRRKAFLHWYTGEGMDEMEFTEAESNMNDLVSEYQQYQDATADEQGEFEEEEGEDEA

| inhibition at 5 µM [1] [%] | SMILES | EC50 (NCI/ADR-RES) [nM] | EC50 (OVCAR-8) [nM] | proportion of cells arrested at G2/M compared to control cells (OVCAR-8 cells) |
| --- | --- | --- | --- | --- |
| 72 ± 0.4 | c1ccc(-c2cccc(Nc3ncnc4cc5c(cc34)OCO5)c2)cc1 [Compound 1] | – | – | significantly increased |
| 41 ± 7 | c1ccc(-c2cccc(Nc3ncnc4cc5c(cc34)OCCO5)c2)cc1 [Compound 2] | 350 ± 80 | – | – |
| 34 ± 1 | c1ccc(-c2cccc(Nc3ncnc4cc5c(cc34)OCCCO5)c2)cc1 [Compound 3] | – | – | – |
| 25 ± 4 | c1ccc(-c2cccc(Nc3ncnc4cc5c(cc34)OCCO5)c2)nc1 [Compound 6, (7,8-Dihydro[1,4]dioxino[2,3-g]quinazolin-4-yl)-[3′-(pyridin-yl-2″-yl)phenyl]amine Hydrochloride] | – | – | – |

Second part, the compound before the results:

| SMILES | inhibition at 5 µM [1] [%] | EC50 (NCI/ADR-RES) [nM] | EC50 (OVCAR-8) [nM] | proportion of cells arrested at G2/M compared to control cells (OVCAR-8 cells) |
| --- | --- | --- | --- | --- |
| COc1ccc(/C=C\c2cc(OC)c(OC)c(OC)c2)cc1O [CA-4, combretastatin A-4] | – | 13 ± 4 | 18 ± 4 | – |
| Cl.c1cc(Nc2ncnc3cc4c(cc23)OCCO4)cc(-c2cccs2)c1 [Compound 5, (7,8-Dihydro[1,4]dioxino[2,3-g]quinazolin-4-yl)-[3′-(thien-2″-yl)phenyl]amine Hydrochloride] | 75 ± 0.8 | – | – | significantly increased |
| c1cc(Nc2ncnc3cc4c(cc23)OCCO4)cc(-c2ccc[nH]2)c1 [Compound 9, (7,8-Dihydro[1,4]dioxino[2,3-g]quinazolin-4-yl)-[3′-(pyrrol-2″-yl)phenyl]amine Hydrochloride] | 33 ± 7 | – | – | – |
| CC(=O)O[C@H]1C(=O)[C@@]2(C)[C@H]([C@H](OC(=O)c3ccccc3)[C@]3(O)C[C@H](OC(=O)[C@H](O)[C@@H](NC(=O)c4ccccc4)c4ccccc4)C(C)=C1C3(C)C)[C@]1(OC(C)=O)CO[C@@H]1C[C@@H]2O [paclitaxel] | – | 5000 | 5.5 ± 0.7 | – |
